Values joined by “and” are separate entries in the source; they are usually repeats but may differ in a detail not shown here. Equal values may be shown once.
Tests used:
[1] = test system: BjaRS107R (B0033|ATG) receiver cells; experiment: BjaR receiver cell AHSL dose-response (gfp reporter, plate reader); format: cell-based, E. coli XL10-Gold; conditions: for EC50: IV-HSL-activated gfp expression; for Mean normalised fluorescence / Normalised fluorescence / GFP: sheet 3d; for Normalised fluorescence / GFP: Expt1-3; for GFP: raw fluorescence ex 488/em 510 nm
Text: (§1) These findings are consistent with the predicted translation initiation rates of the respective sequences—translation from the BBa_B0033 RBS provides 1% of protein yield compared to the BBa_B0034 RBS, just as an CTG start codon provides 1% of the protein yield compared to an ATG start codon[30],[31]. This also offers support as to why the ON-state gfp expression level increased in variants with a tighter OFF-state; more cellular resources were available for GFP synthesis when comparatively fewer were allocated to BjaR synthesis. To elucidate the impact of the S107R variant on gene circuit performance, we introduced the S107R variant alone back into the bjaRWT gene, in the context of the BBa_B0033 RBS background.
(§2) In addition to quantifying how these BjaR receiver cells responded to their branched, cognate ligand, we also sought to determine whether the BjaR receiver cells could be activated by structurally dissimilar AHSLs involved in the LuxI/R, EsaI/R, LasI/R and RhlI/R QS systems previously used in synthetic cell communication[5],[7],[8]. To this end, we measured the fluorescence of BjaR receiver cells grown in the presence of their activators, 3OC6-HSL, 3OC12-HSL and C4-HSL, respectively (Supplementary Fig. 13a).
(§3) The BjaR reporter plasmids were retransformed into E. coli XL10-Gold cells for each experiment. A single colony was used to inoculate 5 ml LB + Amp media and incubated at 37 °C, 225 r.p.m. overnight. Overnight cultures were diluted 1/250 or 1/500 in 5 ml M9 minimal media + Amp and incubated at 37 °C, 225 r.p.m. for 3 h and 45 min (until OD600 = ~0.075). Cultures were diluted down to OD600 = 0.05 with M9 minimal media + Amp, and 200 µl was added to wells of a 96-well plate containing 1 µl IV-HSL dissolved in DMSO or 1 µl BjaI CFPS reactions (IV-HSL concentrations obtained from serial dilution from 63.2 µM to 632 pM; final DMSO concentration = 0.5%). Cells were incubated at 37 °C, 800 r.p.m., in a thermomixer with a heated lid for 4 h. Fluorescence and OD600 were measured in a Tecan M1000 infinite plate reader (excitation, 488 nm; emission, 510 nm; bandwidth, 5 nm; gain, 101 and z position, 21,311 µm). The dose–response curves were fitted to the function indicated by Eq. (1), where a = maximal fluorescence output, b = basal fluorescence output, X = concentration of AHSL, GFP = fluorescence at the given condition, EC50 = AHSL at 50% maximal fluorescence output and h = hill coefficient. EC50 and h were derived using the nonlinear regression model based on Eq. (1), in MATLAB. A summary of the dose–response data is available in Supplementary Table 1.1 GFP=b+a−b/1+10^logEC50−X×h

[2] = test system: BjaRWT (B0033|ATG) receiver cells; experiment: as above; format: cell-based, E. coli XL10-Gold
Text: as §1, §2, §3

Compound: CC(C)CC(=O)N[C@H]1CCOC1=O [IV-HSL, N-isovaleryl-L-homoserine lactone]
- EC50 ([1]; Escherichia coli): 0.63 ± 0.1 nM
- EC50 [1]: 0.6 nM
- Mean normalised fluorescence ([1]; Log([ASHL]) -6.5): 211248
- Normalised fluorescence ([1]; Log([ASHL]) -6.5): 231337 and 193994 and 208414
- GFP ([1]; Log([ASHL]) -6.5): 43152 and 44129 and 37797
- Mean normalised fluorescence ([1]; Log([ASHL]) -7): 191564
- Normalised fluorescence ([1]; Log([ASHL]) -7): 219307 and 167549 and 187835
- GFP ([1]; Log([ASHL]) -7): 41241 and 42932 and 36852
- Mean normalised fluorescence ([1]; Log([ASHL]) -7.5): 185367
- Normalised fluorescence ([1]; Log([ASHL]) -7.5): 205336 and 163229 and 187535
- GFP ([1]; Log([ASHL]) -7.5): 40980 and 43296 and 37356
- Mean normalised fluorescence ([1]; Log([ASHL]) -8): 184023
- Normalised fluorescence ([1]; Log([ASHL]) -8): 162110 and 183388 and 206570
- GFP ([1]; Log([ASHL]) -8): 43713 and 37962 and 41577
- Mean normalised fluorescence ([1]; Log([ASHL]) -8.5): 162300
- Normalised fluorescence ([1]; Log([ASHL]) -8.5): 147294 and 166971 and 172634
- GFP ([1]; Log([ASHL]) -8.5): 45027 and 40097 and 44703
- Mean normalised fluorescence ([1]; Log([ASHL]) -9): 128394
- Normalised fluorescence ([1]; Log([ASHL]) -9): 124444 and 123486 and 137251
- GFP ([1]; Log([ASHL]) -9): 38352 and 35601 and 39674
- Mean normalised fluorescence ([1]; Log([ASHL]) -9.5): 61565.3
- Normalised fluorescence ([1]; Log([ASHL]) -9.5): 61061.7 and 58710.4 and 64923.7
- GFP ([1]; Log([ASHL]) -9.5): 18880 and 16008 and 17944
- Mean normalised fluorescence ([1]; Log([ASHL]) -10): 14778.4
- Normalised fluorescence ([1]; Log([ASHL]) -10): 13513.8 and 15594 and 15227.4
- GFP ([1]; Log([ASHL]) -10): 4242 and 4261 and 4330
- Mean normalised fluorescence ([1]; Log([ASHL]) -10.5): 3859.05
- Normalised fluorescence ([1]; Log([ASHL]) -10.5): 3719.9 and 3832.44 and 4024.82
- GFP ([1]; Log([ASHL]) -10.5): 1247 and 1149 and 1212
- Mean normalised fluorescence ([1]; Log([ASHL]) -11): 2518.58
- Normalised fluorescence ([1]; Log([ASHL]) -11): 2198.08 and 2463.87 and 2893.8
- GFP ([1]; Log([ASHL]) -11): 781 and 756 and 889
- Mean normalised fluorescence ([1]; Log([ASHL]) -11.5): 1640.38
- Normalised fluorescence ([1]; Log([ASHL]) -11.5): 1511.18 and 1789.62 and 1620.34
- GFP ([1]; Log([ASHL]) -11.5): 546 and 584 and 517
- sensitivity to IV-HSL relative to BjaRWT (B0033|ATG) ([1]; more sensitive than BjaRWT (B0033|ATG)): > 6 ×
- fold activation of gene expression (activation range) ([1]; with vs without IV-HSL): 135 fold
- EC50 ([2]; Escherichia coli, IV-HSL-activated gfp expression): 3.93 ± 0.38 nM
- hill coefficient ([2]; IV-HSL dose-response curve): 1.38
- GFP ([2]; Log([ASHL]) -6.5): 47248 and 37500
- Mean normalised fluorescence ([2]; Log([ASHL]) -6.5): 200159
- Normalised fluorescence ([2]; Log([ASHL]) -6.5): 212521 and 200332 and 187623
- Mean normalised fluorescence ([2]; Log([ASHL]) -6.5, sheet 3e): 184419
- Mean normalised fluorescence ([2]; Log([ASHL]) -6.5, sheet 3d): 198983
- Normalised fluorescence ([2]; Log([ASHL]) -6.5, sheet 3d, Expt1-3): 211719 and 182929
- GFP ([2]; Log([ASHL]) -7): 45353 and 37555
- Mean normalised fluorescence ([2]; Log([ASHL]) -7): 189629
- Normalised fluorescence ([2]; Log([ASHL]) -7): 198623 and 195600 and 174664
- Mean normalised fluorescence ([2]; Log([ASHL]) -7, sheet 3e): 176709
- Mean normalised fluorescence ([2]; Log([ASHL]) -7, sheet 3d): 188606
- Normalised fluorescence ([2]; Log([ASHL]) -7, sheet 3d, Expt1-3): 197885 and 170457
- GFP ([2]; Log([ASHL]) -7.5): 45933 and 37587 and 40718
- Mean normalised fluorescence ([2]; Log([ASHL]) -7.5): 182276
- Normalised fluorescence ([2]; Log([ASHL]) -7.5): 179523 and 192948 and 174359
- Mean normalised fluorescence ([2]; Log([ASHL]) -7.5, sheet 3e): 170191
- Mean normalised fluorescence ([2]; Log([ASHL]) -7.5, sheet 3d): 181297
- Normalised fluorescence ([2]; Log([ASHL]) -7.5, sheet 3d, Expt1-3): 178915 and 170205 and 194772
- GFP ([2]; Log([ASHL]) -8): 37611 and 40673
- Mean normalised fluorescence ([2]; Log([ASHL]) -8): 167362
- Normalised fluorescence ([2]; Log([ASHL]) -8): 183805 and 164832 and 153451
- Mean normalised fluorescence ([2]; Log([ASHL]) -8, sheet 3e): 154256
- Mean normalised fluorescence ([2]; Log([ASHL]) -8, sheet 3d): 166513
- Normalised fluorescence ([2]; Log([ASHL]) -8, sheet 3d, Expt1-3): 161111 and 185459
- GFP ([2]; Log([ASHL]) -8.5): 37118 and 36825
- Mean normalised fluorescence ([2]; Log([ASHL]) -8.5): 127411
- Normalised fluorescence ([2]; Log([ASHL]) -8.5): 156949 and 139152 and 86132.6
- Mean normalised fluorescence ([2]; Log([ASHL]) -8.5, sheet 3e): 106537
- Mean normalised fluorescence ([2]; Log([ASHL]) -8.5, sheet 3d): 126734
- Normalised fluorescence ([2]; Log([ASHL]) -8.5, sheet 3d, Expt1-3): 136219 and 158173
- Mean normalised fluorescence ([2]; Log([ASHL]) -9): 62693.3
- Mean normalised fluorescence ([2]; Log([ASHL]) -9, sheet 3e): 40066
- Mean normalised fluorescence ([2]; Log([ASHL]) -9, sheet 3d): 62287.6
- Mean normalised fluorescence ([2]; Log([ASHL]) -9.5): 17191.4
- Mean normalised fluorescence ([2]; Log([ASHL]) -9.5, sheet 3e): 9895.56
- Mean normalised fluorescence ([2]; Log([ASHL]) -9.5, sheet 3d): 17095.5
- Mean normalised fluorescence ([2]; Log([ASHL]) -10): 3897.48
- Mean normalised fluorescence ([2]; Log([ASHL]) -10, sheet 3e): 2635.87
- Mean normalised fluorescence ([2]; Log([ASHL]) -10, sheet 3d): 3848.29
- GFP ([2]; Log([ASHL]) -10.5): 559 and 459
- Mean normalised fluorescence ([2]; Log([ASHL]) -10.5): 1658.33
- Normalised fluorescence ([2]; Log([ASHL]) -10.5): 2009.19 and 1558.44 and 1407.36
- Mean normalised fluorescence ([2]; Log([ASHL]) -10.5, sheet 3e): 1317.17
- Mean normalised fluorescence ([2]; Log([ASHL]) -10.5, sheet 3d): 1623.48
- Normalised fluorescence ([2]; Log([ASHL]) -10.5, sheet 3d, Expt1-3): 1531.14 and 2041.25
- GFP ([2]; Log([ASHL]) -11): 433 and 333 and 432
- Mean normalised fluorescence ([2]; Log([ASHL]) -11): 1322.92
- Normalised fluorescence ([2]; Log([ASHL]) -11): 1515.8 and 1009.39 and 1443.57
- Mean normalised fluorescence ([2]; Log([ASHL]) -11, sheet 3e): 1095.36
- Mean normalised fluorescence ([2]; Log([ASHL]) -11, sheet 3d): 1289.12
- Normalised fluorescence ([2]; Log([ASHL]) -11, sheet 3d, Expt1-3): 995.025 and 1544.75 and 1327.6
- GFP ([2]; Log([ASHL]) -11.5): 418 and 424 and 326
- Mean normalised fluorescence ([2]; Log([ASHL]) -11.5): 1299.42
- Normalised fluorescence ([2]; Log([ASHL]) -11.5): 1462.99 and 1426.41 and 1008.84
- Mean normalised fluorescence ([2]; Log([ASHL]) -11.5, sheet 3e): 1097.76
- Mean normalised fluorescence ([2]; Log([ASHL]) -11.5, sheet 3d): 1265.1
- Normalised fluorescence ([2]; Log([ASHL]) -11.5, sheet 3d, Expt1-3): 994.106 and 1309.43 and 1491.76

From article PMC10449621, “Engineering cellular communication between light-activated synthetic cells and bacteria” (Nature Chemical Biology, 2023)
